# From publication doi:10.1101/2025.06.19.660642, “Discovery of orally bioavailable Zika and West Nile Virus antiviral compounds targeting the NS2B-NS3 protease” (bioRxiv, 2025)
# Read-outs that look alike come from different tables or passages of the source.
# Assays:
# [1] = Cytotoxicity in uninfected Vero E6 cells; format: cell-based; conditions: African green monkey
# Protocol: (§1) Figure 5. (A) Further characterization of ASAP-0027808. Papp was determined in MDR1-MDCK cells. Antiviral assays were performed in Vero E6 cells in a 7-day infection using 0.5 uM CP100356 as a P-gp inhibitor (see Supporting Information for more details). (B) The compound was successfully crystallized with ZIKV NS2B-NS3. ASAP-0016806 and ASAP-0027808 both appear to interact with the same residues (catalytic triad His51/Asp75/Ser135 colored yellow, other key residues Tyr161, NS2B Ser81, and NS2B Asp83 colored green). (C) Dose-dependent suppression of ZIKV-induced cytopathy in VeroE6 cells (n=2); no changes to cell viability of uninfected cells treated with the inhibitor was observed. Cells were co-treated with 0.5 μM CP100356 (as P-gp inhibitor). TEXT PRINTED IN THE PICTURE: (A) ASAP-0027808: ZIKV NS2B-NS3 Ki (μM): 0.090; ZIKV EC50 / CC50 (μM): 4.6 / >50; WNV NS2B-NS3 Ki (μM): 2.9; MW (g/mol): 313; CLint,app, HLM (μL/min/mg): < 10; MDR1-MDCK Papp A→B, B→A (10^-6 cm/sec): 2.0 ,11.0; Kinetic solubility (pH 7.4, μM): 279; LogD: 0.9
# ZIKV [2] = assay: ZIKV antiviral assay (virus-induced cytopathy) in Vero E6 cells with P-gp inhibitor; format: cell-based; conditions: Zika virus; for EC50: Vero C1008, 168 h, read-out: ZIKV EC50
# Protocol: as §1
# WNV NS2B-NS3 protease = target: T1, WNV NS2B-NS3 protease (West Nile virus, UniProt P06935); assay: WNV NS2B-NS3 protease biochemical inhibition
# T1 construct: some activity against the WNV NS2B-NS3 protease
# T1 sequence (P06935 1424-1463): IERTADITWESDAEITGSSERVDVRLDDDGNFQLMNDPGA
# T1 sequence (P06935 1502-1679): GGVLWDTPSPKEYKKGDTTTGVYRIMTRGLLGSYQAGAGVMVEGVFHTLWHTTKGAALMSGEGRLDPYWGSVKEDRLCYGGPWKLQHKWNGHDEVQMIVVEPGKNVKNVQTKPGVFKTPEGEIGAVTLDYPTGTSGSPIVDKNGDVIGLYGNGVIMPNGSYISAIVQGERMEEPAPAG
# ZIKV NS2B-NS3 protease = target: T2, ZIKV NS2B-NS3 protease (Zika virus, UniProt A0A024B7W1); assay: ZIKV NS2B-NS3 protease biochemical FRET assay; conditions: for Ki: ZIKV NS2B-NS3 Ki
# T2 construct: directed at the co-expressed ZIKV NS2B-NS3 protease
# T2 sequence (A0A024B7W1 1503-1680): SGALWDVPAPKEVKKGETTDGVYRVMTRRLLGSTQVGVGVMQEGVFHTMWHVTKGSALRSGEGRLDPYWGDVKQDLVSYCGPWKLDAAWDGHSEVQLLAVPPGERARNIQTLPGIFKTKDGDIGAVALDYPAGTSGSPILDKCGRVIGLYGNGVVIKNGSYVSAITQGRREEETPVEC
# T2 sequence (A0A024B7W1 1425-1464): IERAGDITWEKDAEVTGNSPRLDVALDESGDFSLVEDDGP
# MDR1-MDCK permeability = format: in vitro ADME; conditions: dog; for Papp A→B: MDCK-MDR1, A→B; for Papp B→A: MDCK-MDR1, B→A
# Protocol: as §1
# urokinase = target: T3, urokinase (Homo sapiens, UniProt P00749); assay: Eurofins human protease selectivity panel; format: biochemical; conditions: read-out: inhibitory activity against urokinase
# T3 construct: Eurofins
# From the text: Upon crystallization in the active site of ZIKV NS2B-NS3, we noted the compound participating with most of the same residues as ASAP-0016806 (Figure 5B): an aromatic interaction with Tyr161, a hydrogen-bonding interaction with Gly151, an aromatic interaction with His51, and an electrostatic interaction with Asp83 (with a possible additional hydrogen bonding interaction to Ser81).
# Vero E6 cells = assay: Cytotoxicity in uninfected Vero E6 cells; format: cell-based
# Protocol: as §1
# [3] = Microsomal clearance, HLM; conditions: human, microsomes
# Kinetic solubility = conditions: pH 7.4
# [4] = Microsomal clearance, MLM; conditions: mouse, microsomes
# [5] = Cytotoxicity in SH-SY5Y cells; conditions: human
# [6] = Murine in vivo pharmacokinetics and tolerability; design: species or system mice; conditions: mouse
# From the text: Figure 8. […] (B) ASAP-0036543 was assigned the (S) configuration by crystallography and the compound assumed a similar binding mode to that observed with ASAP-0029000. (C) Murine in vivo pharmacokinetics for ASAP-0036543. […] TEXT PRINTED IN THE PICTURE: (A) ASAP-0036543: ZIKV Ki (μM): 0.0029; ZIKV EC50 / EC90 / CC50 (μM, SH-SY5Y cells): 0.48 / 0.75 / 38; ZIKV EC50 / EC90 / CC50 (μM, Vero cells + pgpi): 0.38 / 0.98 / >50; WNV Ki (μM): 0.058; WNV EC50 / CC50 (μM, Vero cells + Pgpi): 1.0 / >50; %F (150, 300, 600 mpk): 96 / 153 / 223; Vd,ss (L/kg): 7.9; CLp (mL/min/kg): 87; CLint,app, HLM, MLM (μL/min/mg): < 10, <10; MDR1-MDCK Papp A→B, B→A (10^-6 cm/sec): 1.2, 16; KSol (pH 7.4, μM): 389; LogD: 1.0
# The compound had high kinetic solubility, low microsomal clearance, and acceptable permeability in an MDR1-MDCK cell line. Respectable antiviral potency against WNV in Vero cells was also noted, which had been hitherto difficult to achieve with the chemotype. […] ASAP-0036543 was then advanced to murine pharmacokinetic studies to assess its potential as an in vivo tool compound.[31]
# WNV = WNV antiviral assay in Vero cells with P-gp inhibitor; format: cell-based; conditions: West Nile virus, read-out: WNV EC50 (Vero cells + Pgpi)
# ZIKV [7] = assay: ZIKV antiviral assay in SH-SY5Y cells; format: cell-based; conditions: Zika virus
# [8] = Vero E6 cells, 0.5 uM CP100356 as P-gp inhibitor, read-out: CC50
Compound,logD (LogD),"CC50 [1, 8] [nM]",EC50 (ZIKV [2]) [nM],Ki (WNV NS2B-NS3 protease) [nM],Ki (ZIKV NS2B-NS3 protease) [nM],Papp A→B (MDR1-MDCK permeability) [×10⁻⁶ cm/s],Papp B→A (MDR1-MDCK permeability) [×10⁻⁶ cm/s],microsomal CLint [3] [µL/min/mg],also measured
CC(C)NC(=O)[C@@H](Nc1ccc2c(c1)CNC2)c1cc(Cl)cc2[nH]ncc12 [ASAP-0029974],0.5,> 50000,5700,360,48,–,–,–,–
Clc1cc(CNc2ccc3c(c2)CNC3)c2cn[nH]c2c1 [ASAP-0029525],–,29800,17900,43000,2900,–,–,–,–
O=C(Nc1ccc2c(c1)CNC2)c1cc(Cl)cc2[nH]ncc12 [ASAP-0027808],0.9,> 50000,4600,2900,90,2,11,< 10,"inhibition at 10 µM (urokinase): 21%; cytotoxicity (Vero E6 cells; Vero E6 cells treated with a P-gp inhibitor, up to 50 μM): no apparent cytotoxicity; Kinetic solubility (Kinetic solubility): 279 µM; Ligand efficiency (LE) (ZIKV NS2B-NS3 protease; Ligand efficiency = pKi / heavy atom count): 0.452"
Cc1cc([C@H](Nc2ccc3c(c2)CNC3)C(=O)NCC(F)F)cc(C(F)(F)F)c1 [ASAP-0036543],1,–,380,58,2.9,1.2,16,< 10,"microsomal CLint [4]: < 10 µL/min/mg; CC50 [5]: 38000 nM; CC50 ([1]; Vero cells + Pgpi, printed with WNV EC50, read-out: CC50 (WNV assay, Vero cells + Pgpi)): > 50000 nM; CC50 (Vero E6 cells; Vero E6 cells, 0.5 uM CP100356 as P-gp inhibitor): > 50000 nM; bioavailability ([6]; in vivo, 150 mg/kg, PO 150 mpk, read-out: %F): 96%; bioavailability ([6]; in vivo, 300 mg/kg, PO 300 mpk, read-out: %F): 153%; bioavailability ([6]; in vivo, 600 mg/kg, PO 600 mpk, read-out: %F (oral bioavailability)): 223%; clearance ([6]; in vivo, read-out: CLp): 87 mL/min/kg; Vd ([6]; in vivo, read-out: Vd,ss): 7.9 L/kg; tolerability ([6]; single PO doses of 150, 300 and 600 mg/kg): well-tolerated; EC50 (WNV): 1000 nM; EC50 (ZIKV [7]; read-out: ZIKV EC50 (SH-SY5Y cells)): 480 nM; EC90 (ZIKV [7]; read-out: ZIKV EC90 (SH-SY5Y cells)): 750 nM; solubility kinetic (Kinetic solubility): 389 µM; EC90 (ZIKV [2]; Vero, read-out: ZIKV EC90 (Vero cells + pgpi)): 980 nM"
